Measurements reported in ChEMBL document CHEMBL5506033, “Brain-Penetrant Macrocycles: Design Considerations, Future Prospects, and Call for Papers” (J Med Chem, 2024).

Tests used:
[1] = Oral bioavailability in human; assay type: ADME, organism-based; conditions: in vivo
[2] = Half life in human; assay type: ADME

bioavailability [1]: 81%
half-life [2]: ~25 h
Compound: C[C@H]1Oc2cc(cnc2N)-c2c(nn(C)c2C#N)CN(C)C(=O)c2ccc(F)cc21 [LORLATINIB]
